According to patent publication US12103915B2, “TEAD inhibitors and methods of uses thereof” (Insilico Medicine IP Limited, priority 2022, dated 2024):

Experiments:
Assay type in all cases: binding
TEAD1 = TEAD1 (Homo sapiens, UniProt P28347); experiment: Thermal shift assay TEAD1
Description: (§1) Example B: Thermal Shift Assay
(§2) 1) Prepare a fresh dilution of Protein Thermal Shift™ Dye (Applied Biosystems, 1000×) to 8× by […].
(§3) 2) To ensure the same DMSO concentration, the compounds were diluted as follows: Prepare 10 mM stock solution of compounds;
(§4) The final DMSO concentration was 0.1%
(§5) 10 μM: Diluting stock solution to 100 μM by using PBS.
(§6) 1 μM: Diluting stock solution to 1 mM by using DMSO, then dilute to 10 μM by using PBS.
(§7) TEAD1: the stock concentration was 2.9 mg/ml; the final concentration was 0.2 mg/ml. TEAD2: the stock concentration was 1.8 mg/ml; the final concentration was 0.08 mg/ml.
(§8) 4) Place the appropriate reaction plate or tubes on ice, then prepare the protein melt reactions:
(§9) 5) Pipet each reaction up and down 10 times to mix well.
(§10) 6) Seal the plate with MicroAmp™ Optical Adhesive Film, spin it at 1000 rpm for 1 minute.
(§11) 7) Set up and run on the qPCR instrument.
(§12) Using thermal Shift™ Software v1.3 to analysis.

TEAD4 = TEAD4 (Homo sapiens, UniProt Q15561); experiment: Thermal shift assay TEAD4
Description: as §1, §2, §3, §4, §5, §6
TEAD4: the stock concentration was 2.3 mg/ml; the final concentration was 0.1 mg/ml.
as §8, §9, §10, §11, §12

TEAD3 = TEAD3 (Homo sapiens, UniProt Q99594); experiment: Thermal shift assay TEAD3
Description: as §1, §2, §3, §4, §5, §6
TEAD3: the stock concentration was 2.4 mg/ml; the final concentration was 0.1 mg/ml.
as §8, §9, §10, §11, §12

TEAD2 = TEAD2 (Homo sapiens, UniProt Q15562); experiment: Thermal shift assay TEAD2
Description: as §1, §2, §3, §4, §5, §6, §7, §8, §9, §10, §11, §12

Sequence of TEAD2 (Q15562 whole entry, species assumed): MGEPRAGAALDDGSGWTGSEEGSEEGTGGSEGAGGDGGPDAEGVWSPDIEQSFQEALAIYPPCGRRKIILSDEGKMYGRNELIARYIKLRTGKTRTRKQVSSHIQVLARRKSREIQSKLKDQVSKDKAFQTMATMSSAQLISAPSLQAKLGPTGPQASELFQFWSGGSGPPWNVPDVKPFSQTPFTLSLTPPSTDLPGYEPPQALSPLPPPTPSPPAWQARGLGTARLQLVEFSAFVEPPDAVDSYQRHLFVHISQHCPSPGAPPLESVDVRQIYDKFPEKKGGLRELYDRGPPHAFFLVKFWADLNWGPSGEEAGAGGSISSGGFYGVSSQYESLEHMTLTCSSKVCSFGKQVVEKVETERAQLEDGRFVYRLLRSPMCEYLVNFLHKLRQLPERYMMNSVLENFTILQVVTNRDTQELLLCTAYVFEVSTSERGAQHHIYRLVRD
Sequence of TEAD1 (P28347 whole entry, species assumed): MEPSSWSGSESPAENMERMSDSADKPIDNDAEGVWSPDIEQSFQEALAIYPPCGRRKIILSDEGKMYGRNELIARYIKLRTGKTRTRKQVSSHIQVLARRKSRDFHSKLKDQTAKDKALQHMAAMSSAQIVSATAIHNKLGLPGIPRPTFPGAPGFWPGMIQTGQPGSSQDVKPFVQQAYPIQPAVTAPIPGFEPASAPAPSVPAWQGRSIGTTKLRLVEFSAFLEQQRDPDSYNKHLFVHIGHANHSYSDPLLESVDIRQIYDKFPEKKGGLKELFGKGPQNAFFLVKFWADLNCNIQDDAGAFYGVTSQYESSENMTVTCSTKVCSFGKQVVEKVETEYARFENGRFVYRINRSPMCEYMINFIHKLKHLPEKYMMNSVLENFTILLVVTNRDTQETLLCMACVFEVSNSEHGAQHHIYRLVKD
Sequence of TEAD3 (Q99594 whole entry, species assumed): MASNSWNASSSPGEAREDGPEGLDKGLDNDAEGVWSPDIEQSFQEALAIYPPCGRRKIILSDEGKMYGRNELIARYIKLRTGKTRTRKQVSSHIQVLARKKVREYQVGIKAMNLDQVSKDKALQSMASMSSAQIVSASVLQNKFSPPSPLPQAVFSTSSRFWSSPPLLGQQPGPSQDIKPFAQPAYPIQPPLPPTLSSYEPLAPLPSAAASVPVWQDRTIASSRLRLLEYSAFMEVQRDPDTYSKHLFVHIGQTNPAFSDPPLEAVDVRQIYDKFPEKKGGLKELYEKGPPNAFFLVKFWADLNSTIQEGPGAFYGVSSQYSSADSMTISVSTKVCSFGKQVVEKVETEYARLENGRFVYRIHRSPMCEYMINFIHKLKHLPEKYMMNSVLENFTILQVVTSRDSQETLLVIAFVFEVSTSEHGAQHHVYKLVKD
Sequence of TEAD4 (Q15561 whole entry, species assumed): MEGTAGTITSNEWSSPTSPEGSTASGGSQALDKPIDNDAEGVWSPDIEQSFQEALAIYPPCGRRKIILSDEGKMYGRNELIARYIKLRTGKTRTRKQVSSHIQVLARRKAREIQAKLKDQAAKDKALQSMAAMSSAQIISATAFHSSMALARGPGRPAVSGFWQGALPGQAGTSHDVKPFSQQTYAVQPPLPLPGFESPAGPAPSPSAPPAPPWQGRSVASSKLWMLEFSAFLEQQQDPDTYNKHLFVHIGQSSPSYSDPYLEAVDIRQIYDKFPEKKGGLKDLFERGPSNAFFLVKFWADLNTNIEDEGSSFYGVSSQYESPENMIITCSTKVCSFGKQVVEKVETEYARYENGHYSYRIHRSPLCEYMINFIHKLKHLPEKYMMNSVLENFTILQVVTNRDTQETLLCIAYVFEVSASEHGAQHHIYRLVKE

| SMILES | TEAD1 ΔTm (TEAD1) [°C] | TEAD4 ΔTm (TEAD4) [°C] | TEAD3 ΔTm (TEAD3) [°C] | TEAD2 ΔTm (TEAD2) [°C] |
| --- | --- | --- | --- | --- |
| CNS(=O)(=O)[C@@H]1CC1c1cc(-c2ccc(C(F)(F)F)cc2)cc2cn(C)nc12 (mixture of isomers) [Example 50] | 4.2 | 5.7 | 0.7 | 2.5 |
| O=C(O)[C@@H]1CC1c1cc(Oc2ccc(C(F)(F)F)cc2)cn2ccnc12 (mixture of isomers) [Example 83] | 2.7 | 3.6 | 1.4 | 8.0 |
| CNC(=O)[C@@H]1CC1c1cc(Oc2ccc(C(F)(F)F)cc2)cn2ccnc12 (mixture of isomers) [Example 84] | 1.0 | 3.1 | 1.2 | 6.5 |
| Cn1cc2cc(Oc3ccc(C(F)(F)F)cc3)cc([C@@H]3C[C@H]3C(=O)O)c2n1 (single isomer, unassigned) [Example 16a] | 11.3 | 11.4 | 2 | 13.7 |
| Cn1cc2cc(Oc3ccc(C(F)(F)F)cc3)cc([C@H]3C[C@@H]3C(=O)O)c2n1 (single isomer, unassigned) [Example 16b] | 12.1 | 12.5 | 15 | 14.9 |
| [2H]C([2H])([2H])n1cc2cc(Oc3ccc(C(F)(F)F)cc3)cc([C@@H]3C[C@H]3C(=O)NC)c2n1 (single isomer, unassigned) [Example 76a] | 5.4 | 4.7 | 0.6 | 10.3 |
| [2H]C([2H])([2H])n1cc2cc(Oc3ccc(C(F)(F)F)cc3)cc([C@H]3C[C@@H]3C(=O)NC)c2n1 (single isomer, unassigned) [Example 76b] | 11.5 | 12.6 | 10.9 | 15.4 |
| Cn1cc2cc(O[C@H]3CC[C@@H](C(F)(F)F)CC3)cc([C@@H]3C[C@H]3C(=O)N3CC(O)C3)c2n1 (single isomer, unassigned) [Example 87a] | 4.9 | 6.8 | 1.0 | 10.1 |
| Cn1cc2cc(O[C@H]3CC[C@@H](C(F)(F)F)CC3)cc([C@H]3C[C@@H]3C(=O)N3CC(O)C3)c2n1 (single isomer, unassigned) [Example 87b] | −0.4 | 0.3 | 0.0 | 2.6 |
| Cn1cc2cc(Oc3ccc(C(F)(F)F)cn3)cc([C@@H]3C[C@H]3C(=O)N3CC(O)C3)c2n1 (single isomer, unassigned) [Example 88a] | −0.3 | 0.1 | 0.1 | 1.5 |
| Cn1cc2cc(Oc3ccc(C(F)F)cc3)cc([C@@H]3C[C@H]3C(=O)N3CC(O)C3)c2n1 (single isomer, unassigned) [Example 89a] | 0.0 | −0.2 | 0.2 | 3.3 |
| Cn1cc2cc(Oc3ccc(F)c(F)c3)cc([C@@H]3C[C@H]3C(=O)N3CC(O)C3)c2n1 (single isomer, unassigned) [Example 90a] | −0.2 | 0.6 | 0.2 | 2.6 |
| Cn1cc2cc(Oc3ccc(C(F)(F)F)cc3)cc(C3C[C@H]3C(=O)N3CC4CC3[C@H](O)[C@H]4O)c2n1 (single isomer, unassigned) [Example 106] | 6.4 | 8.5 | 2.2 | 9.9 |
| Cn1cc2cc(Oc3ccc(C(F)(F)F)cc3)cc(C3C[C@H]3C(=O)NC[C@H]3C[C@@H](O)[C@@H](O)C3O)c2n1 (single isomer, unassigned) [Example 107] | 5.0 | 6.1 | 1.1 | 4.9 |
| Cn1cc2nc(Oc3ccc(C(F)(F)F)cc3)nc([C@H]3C[C@@H]3C(=O)N3CC(O)C3)c2n1 (single isomer, unassigned) [Example 109b] | 1.8 | 3.4 | 0.9 | 2.2 |
| Cn1cc2cc(Oc3ccc(C(F)(F)F)cc3)cc(C3C[C@H]3C(=O)N3CCS(=O)(=O)CC3)c2n1 (single isomer, unassigned) [Example 110] | 4.1 | 4.1 | 1.0 | 5.2 |

| SMILES | TEAD1 ΔTm (TEAD1) [°C] | TEAD4 ΔTm (TEAD4) [°C] | TEAD3 ΔTm (TEAD3) [°C] | TEAD2 ΔTm (TEAD2) [°C] |
| --- | --- | --- | --- | --- |
| Cn1cc2cc(Oc3ccc(C(F)(F)F)cc3)cc(C3C[C@H]3C(=O)N3CCP(C)(=O)CC3)c2n1 (single isomer, unassigned) [Example 111] | 3.0 | 3.2 | 0.7 | 3.7 |
| CO[C@H]1CN(C(=O)[C@@H]2C[C@H]2c2cc(Oc3ccc(C(F)(F)F)cc3)cc3cn(C)nc23)C[C@@H]1O (single isomer, unassigned) [Example 112a] | 7.2 | 8.6 | 2.0 | 9.5 |
| Cn1cc2cc(Oc3ccc(C(F)(F)F)cc3)cc(C3C[C@H]3C(=O)N3CC(C(=O)O)C3)c2n1 (single isomer, unassigned) [Example 113] | 4.1 | 4.2 | 1.5 | 5.7 |
| Cn1cc2cc(Oc3ccc(C(F)(F)F)cc3)cc(C3C[C@H]3C(=O)N3CCOC4(COC4)C3)c2n1 (single isomer, unassigned) [Example 114] | 4.6 | 7.1 | 1.5 | 7.1 |
| CN1CCC2(CN(C(=O)[C@@H]3CC3c3cc(Oc4ccc(C(F)(F)F)cc4)cc4cn(C)nc34)C2)C1=O (single isomer, unassigned) [Example 115] | 4.2 | 3.5 | 1.3 | 3.5 |
| Cn1cc2cc(Oc3ccc(C(F)(F)F)cc3)cc(C3C[C@H]3C(=O)N3C4COCC3CC(O)C4)c2n1 (single isomer, unassigned) [Example 116a] | 4.6 | 6.1 | 1.8 | 6.1 |
| Cn1cc2cc(Oc3ccc(C(F)(F)F)cc3)cc(C3C[C@H]3C(=O)N3C4COCC3CC(O)C4)c2n1 (single isomer, unassigned) [Example 116b] | 5.5 | 7.1 | 2.2 | 5.3 |
| Cn1cc2nc(Oc3ccc(C(F)(F)F)cc3)cc([C@@H]3C[C@H]3C(=O)N3C4COCC3C4)c2n1 (single isomer, unassigned) [Example 118] | 4.6 | 6.1 | 1.6 | 6.2 |
| Cn1cc2nc(Oc3ccc(C(F)(F)F)cc3)cc([C@@H]3C[C@H]3C(=O)N3C[C@H]4C[C@@H]3CO4)c2n1 (single isomer, unassigned) [Example 119] | 4.2 | 4.7 | 1.6 | 6.1 |
| Cn1cc2nc(Oc3ccc(C(F)(F)F)cc3)cc([C@@H]3C[C@H]3C(=O)N3C[C@@H]4C[C@H]3CO4)c2n1 (single isomer, unassigned) [Example 120] | 4.1 | 4.5 | 1.2 | 6.5 |
| Cn1cc2cc(Oc3ccc(C(F)(F)F)cc3)cc([C@@H]3C[C@H]3C(=O)N3CC4CC3CN4)c2n1 (single isomer, unassigned) [Example 122] | 5.9 | 4.9 | 1.8 | 6.5 |
| Cn1cc2cc(Oc3cc(F)ccc3C(F)(F)F)cc([C@@H]3C[C@H]3C(=O)N3CC(O)C3)c2n1 (single isomer, unassigned) [Example 133] | 1.1 | 4.9 | 0.3 | 8.5 |
| Cn1cc2cc(Oc3ccc(C(F)(F)F)cc3)cc([C@@H]3C[C@H]3C(=O)N3CCC34CC(O)C4)c2n1 (single isomer, unassigned) [Example 136] | 7.1 | 10.3 | 1.7 | 12.4 |
| Cn1cc2cc(Oc3cc(F)c(F)c(F)c3)cc([C@@H]3C[C@H]3C(=O)N3C[C@@H]4C[C@H]3C[C@@H]4O)c2n1 (single isomer, unassigned) [Example 138] | 4.2 | 6.4 | 2.3 | 6.8 |
| CNS(=O)(=O)CCc1cc(N(C)c2ccc(C(F)(F)F)cc2)cc2cn(C)nc12 [Example 49] | 3.2 | 5.1 | 0.1 | 2.6 |
